SMILES strings stand for the structures.

Test [1] concerns the target T. brucei TryR (Trypanosoma brucei brucei, UniProt P39051). The test can be described thus: TryR inhibition, high-throughput microplate assay. The class given is biochemical.
In test [2] the target is T. cruzi TryR (Trypanosoma cruzi, UniProt P28593). The test can be described thus: TryR inhibition, high-throughput microplate assay. The test is classed as biochemical.
T. cruzi TryR, sequence (P28593 whole entry): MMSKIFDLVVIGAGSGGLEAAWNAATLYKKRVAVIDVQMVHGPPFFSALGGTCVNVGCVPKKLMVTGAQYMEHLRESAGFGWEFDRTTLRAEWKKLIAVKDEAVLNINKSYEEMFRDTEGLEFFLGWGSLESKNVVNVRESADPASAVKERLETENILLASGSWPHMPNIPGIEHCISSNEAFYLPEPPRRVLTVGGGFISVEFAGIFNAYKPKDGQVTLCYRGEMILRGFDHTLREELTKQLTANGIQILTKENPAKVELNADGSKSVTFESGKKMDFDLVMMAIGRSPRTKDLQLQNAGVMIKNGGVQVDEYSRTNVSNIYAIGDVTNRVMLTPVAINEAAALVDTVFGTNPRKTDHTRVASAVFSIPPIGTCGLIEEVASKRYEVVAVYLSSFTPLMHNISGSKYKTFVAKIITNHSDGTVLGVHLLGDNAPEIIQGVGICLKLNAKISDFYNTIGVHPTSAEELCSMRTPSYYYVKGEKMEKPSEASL

T. brucei TryR, sequence (P39051 whole entry): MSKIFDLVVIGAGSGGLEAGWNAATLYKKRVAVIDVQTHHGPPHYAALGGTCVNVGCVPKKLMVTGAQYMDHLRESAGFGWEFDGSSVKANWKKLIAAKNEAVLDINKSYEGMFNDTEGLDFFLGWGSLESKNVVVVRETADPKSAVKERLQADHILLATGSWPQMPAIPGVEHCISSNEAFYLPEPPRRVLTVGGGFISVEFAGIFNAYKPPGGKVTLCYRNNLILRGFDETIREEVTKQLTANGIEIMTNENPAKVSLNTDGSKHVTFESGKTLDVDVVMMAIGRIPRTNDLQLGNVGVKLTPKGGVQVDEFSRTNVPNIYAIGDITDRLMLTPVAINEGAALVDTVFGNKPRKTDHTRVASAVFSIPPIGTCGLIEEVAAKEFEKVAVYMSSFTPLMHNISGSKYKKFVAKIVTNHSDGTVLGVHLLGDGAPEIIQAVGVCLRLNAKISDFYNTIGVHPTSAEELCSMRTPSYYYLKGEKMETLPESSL

Turning to `O=C(CN1C(=O)C2CC=CCC2C1=O)Nc1ccccc1Sc1ccc(Cl)cc1` (stereo not shown) [Compound 12], the “inhibitory activity against TryR (in words)” value in test [1] and in test [2] was “neither 12 nor 16 displayed significant inhibitory activity” in each case.
Regarding `O=C(CN1C(=O)NC2(CCCCCC2)C1=O)Nc1ccccc1Sc1ccccc1` [Compound 16], the “inhibitory activity against TryR (in words)” value in test [1] and in test [2] was “neither 12 nor 16 displayed significant inhibitory activity” in each case.

Source of the values: publication PMC2659691 (Journal of Medicinal Chemistry, 2009).
